32 molecules from patent US9079866B2, “Flap modulators” (JANSSEN PHARMACEUTICA NV, priority 2013, dated 2015) can be followed below.

The target in one experiment is human FLAP (Homo sapiens (Human), UniProt P20292). Kind of experiment: FLAP binding assay (HTRF format). Conditions: HTRF format. Put shortly: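 Samples were run in duplicate on each of two plates and the plate results averaged. Read-out is the HTRF signal ratio.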
In experiment [1] the test system is leukotriene pathway in human whole blood (LTB4 levels). Kind of experiment: Human whole blood assay (A23187-stimulated LTB4). Type of experiment: cell-based. The conditions noted are these: Homo sapiens, read-out: LTB4 IC50 1:1. The method in brief: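 Compounds are pre-incubated 15 min at 37° Celsius in RPMI-diluted (1:1) heparinised whole blood before a 30 min A23187 stimulus (7 μg/mL). Plasma LTB4 is read by immunoassay kit, with IC50 calculated from a 4-parameter equation.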

Setting [2] is: human FLAP wild type, average of two plates, duplicates.
Where [3] appears, read: human whole blood diluted 1:1 in RPMI, A23187-stimulated LTB4.
The mark [4] stands for this setting: human whole blood diluted 1:1, A23187-stimulated.

Read-outs that look alike come from different tables or passages of the source.

Chain of human FLAP (P20292 whole entry): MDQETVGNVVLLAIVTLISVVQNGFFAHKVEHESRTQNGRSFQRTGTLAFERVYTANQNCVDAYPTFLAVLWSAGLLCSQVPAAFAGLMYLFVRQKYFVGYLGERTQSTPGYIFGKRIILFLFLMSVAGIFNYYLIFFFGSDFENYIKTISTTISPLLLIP

In the case of `Nc1ccc(-c2ccc(-c3ccccc3S(=O)(=O)N3CCC(CO)CC3)cc2F)cn1` [Example 361, (1-((4′-(6-Aminopyridin-3-yl)-3′-fluoro-[1,1′-biphenyl]-2-yl)sulfonyl)piperidin-4-yl)methanol], the inhibitory constant (Ki) (commonly a measure of affinity in units of concentration, obtained from inhibition or displacement) on human FLAP (setting [2]) amounted to 5 nM. The half-inhibitory concentration (IC50) (as a rule, the point on the concentration scale where inhibition reaches its midpoint) in experiment [1] (setting [3]) was determined as 26 nM.
At human FLAP (setting [2]), `C[C@@H](CO)NS(=O)(=O)c1ccccc1-c1ccc(-c2cnc3[nH]ccc3c2)c(F)c1` [Example 362, 3′-Fluoro-N-[(1S)-2-hydroxy-1-methylethyl]-4′-(1H-pyrrolo[2,3-b]pyridin-5-yl)biphenyl-2-sulfonamide] registered an inhibition constant Ki of 1 nM. Moreover, in experiment [1] (setting [3]), the IC50 stood at 47 nM.
On the same counts, the results for `C[C@H](CO)NS(=O)(=O)c1ccccc1-c1ccc(-c2cnc3[nH]ccc3c2)c(F)c1` [Example 363, 3′-Fluoro-N-[(1R)-2-hydroxy-1-methylethyl]-4′-(1H-pyrrolo[2,3-b]pyridin-5-yl)biphenyl-2-sulfonamide] are 1 nM and 184 nM.
Turning to `O=C1NCC[C@@H]1NS(=O)(=O)c1ccccc1-c1ccc(-c2cnc3[nH]ccc3c2)c(F)c1` [Example 364, 3′-Fluoro-N-[(3S)-2-oxopyrrolidin-3-yl]-4′-(1H-pyrrolo[2,3-b]pyridin-5-yl)biphenyl-2-sulfonamide], affinity on human FLAP (setting [2]) was put at a Ki of 3 nM. The IC50 in experiment [1] (setting [3]) came out at 150 nM.
`O=S(=O)(c1ccccc1-c1ccc(-c2cnc3[nH]ccc3c2)c(F)c1)C1CC1` [Example 365, 5-[2′-(Cyclopropylsulfonyl)-3-fluorobiphenyl-4-yl]-1H-pyrrolo[2,3-b]pyridine]: the inhibitory constant (Ki) on human FLAP (setting [2]) was 3 nM. Also, the 50% inhibitory concentration (IC50) in experiment [1] (setting [3]) came out at 60 nM.
On the same counts, the results for `O=S(=O)(NCCO)c1ccccc1-c1ccc(-c2cnc3[nH]ccc3c2)c(F)c1` [Example 366, 3′-Fluoro-N-(2-hydroxyethyl)-4′-(1H-pyrrolo[2,3-b]pyridin-5-yl)biphenyl-2-sulfonamide] are 1 nM and 40 nM.
On to `CC(C)(C)NS(=O)(=O)c1ccccc1-c1ccc(-c2cnc3[nH]ccc3c2)c(F)c1` [Example 367, N-tert-Butyl-3′-fluoro-4′-(1H-pyrrolo[2,3-b]pyridin-5-yl)biphenyl-2-sulfonamide], for which the Ki on human FLAP (setting [2]) was 1 nM. The IC50 in experiment [1] (setting [3]) turned out to be 6 nM.
On the same counts, the results for `CS(=O)(=O)Nc1ccccc1-c1ccc(-c2cnc3[nH]ccc3n2)c(F)c1` [Example 369, N-[3′-Fluoro-4′-(5H-pyrrolo[2,3-b]pyrazin-2-yl)biphenyl-2-yl]methanesulfonamide] are 17 nM and 375 nM.
With `CN(C)S(=O)(=O)c1ccccc1-c1ccc(-c2cnc3[nH]ccc3n2)c(F)c1` [Example 370, 3′-Fluoro-N,N-dimethyl-4′-(5H-pyrrolo[2,3-b]pyrazin-2-yl)biphenyl-2-sulfonamide], the Ki on human FLAP (setting [2]) was found to be 2 nM. In experiment [1] (setting [3]), the IC50 was 88 nM.
At human FLAP (setting [2]), `CC(C)(C)NS(=O)(=O)c1ccccc1-c1ccc(-c2cnc3[nH]ccc3n2)c(F)c1` [Example 371, N-tert-Butyl-3′-fluoro-4′-(5H-pyrrolo[2,3-b]pyrazin-2-yl)biphenyl-2-sulfonamide] displayed an inhibitory constant (Ki) of 1 nM. In addition, the half-maximal inhibitory concentration (IC50) in experiment [1] (setting [3]) turned out to be 15 nM.
With `O=S(=O)(c1ccccc1-c1ccc(-c2cnc3[nH]ccc3n2)c(F)c1)N1CCCC1` [Example 372, 2-[3-Fluoro-2′-(pyrrolidin-1-ylsulfonyl)biphenyl-4-yl]-5H-pyrrolo[2,3-b]pyrazine], at human FLAP (setting [2]), the affinity, expressed as Ki, was 25 nM. The IC50 in experiment [1] (setting [3]) was 31 nM.
Taken in the same sequence, the figures for `CCN(CC)S(=O)(=O)c1ccccc1-c1ccc(-c2cnc3[nH]ccc3n2)c(F)c1` [Example 373, N,N-Diethyl-3′-fluoro-4′-(5H-pyrrolo[2,3-b]pyrazin-2-yl)biphenyl-2-sulfonamide] were 1 nM and 7 nM.
On human FLAP (setting [2]), `O=S(=O)(c1ccccc1-c1ccc(-c2cnc3[nH]ccc3n2)c(F)c1)N1CCCCC1` [Example 374, 2-[3-Fluoro-2′-(piperidin-1-ylsulfonyl)biphenyl-4-yl]-5H-pyrrolo[2,3-b]pyrazine] had a Ki of 1 nM. In experiment [1] (setting [3]), the 50% inhibitory concentration (IC50) stood at 11 nM.
Take `O=S(=O)(c1ccccc1-c1ccc(-c2cnc3[nH]ccc3n2)c(F)c1)N1CCOCC1` [Example 375, 2-[3-Fluoro-2′-(morpholin-4-ylsulfonyl)biphenyl-4-yl]-5H-pyrrolo[2,3-b]pyrazine]: the Ki at human FLAP (setting [2]) was determined as 2 nM. Also, in experiment [1] (setting [3]), the IC50 is 31 nM.
Take `CS(=O)(=O)c1ccccc1-c1ccc(-c2cnc3[nH]ccc3n2)c(F)c1` [Example 377, 2-[3-Fluoro-2′-(methylsulfonyl)biphenyl-4-yl]-5H-pyrrolo[2,3-b]pyrazine]: the affinity at human FLAP (setting [2]), expressed as Ki, was 33 nM. The IC50 in experiment [1] (setting [3]) amounted to 979 nM.
In turn, `CNS(=O)(=O)c1ccccc1-c1ccc(-c2cnc3[nH]ccc3n2)c(F)c1` [Example 379, 3′-Fluoro-N-methyl-4′-(5H-pyrrolo[2,3-b]pyrazin-2-yl)biphenyl-2-sulfonamide] yielded a Ki at human FLAP (setting [2]) of 1 nM. Further, in experiment [1] (setting [3]), the IC50 was found to be 33 nM.
At human FLAP (setting [2]), `NC1CCN(S(=O)(=O)c2ccccc2-c2ccc(-c3cnc4[nH]ccc4n3)c(F)c2)CC1` [Example 381, 1-{[3′-Fluoro-4′-(5H-pyrrolo[2,3-b]pyrazin-2-yl)biphenyl-2-yl]sulfonyl}piperidin-4-amine] gave an inhibition constant (Ki) of 5 nM. Moreover, the concentration for half-maximal inhibition (IC50) in experiment [1] (setting [3]) stood at 141 nM.
The molecule `CS(=O)(=O)c1ccccc1-c1ccc(-c2cnc3c(c2)OCCN3)c(F)c1` [Example 385, 7-[3-Fluoro-2′-(methylsulfonyl)biphenyl-4-yl]-3,4-dihydro-2H-pyrido[3,2-b][1,4]oxazine] yielded an inhibition constant (Ki) at human FLAP (setting [2]) of 42 nM. Moreover, the IC50 in experiment [1] (setting [3]) was 1080 nM.
In turn, `O=S(=O)(c1ccccc1-c1ccc(-c2cnc3c(c2)OCCN3)c(F)c1)N1CCCCC1` [Example 386, 7-[3-Fluoro-2′-(piperidin-1-ylsulfonyl)biphenyl-4-yl]-3,4-dihydro-2H-pyrido[3,2-b][1,4]oxazine] came in with an inhibition constant (Ki) at human FLAP (setting [2]) of 2 nM. The IC50 in experiment [1] (setting [3]) is 77 nM.
On to `NS(=O)(=O)c1ccccc1-c1ccc(-c2cnc3c(c2)OCCN3)c(F)c1` [Example 387, 4′-(3,4-Dihydro-2H-pyrido[3,2-b][1,4]oxazin-7-yl)-3′-fluorobiphenyl-2-sulfonamide], for which, on human FLAP (setting [2]), the Ki turned out to be 8 nM. In experiment [1] (setting [3]), the IC50 was found to be 253 nM.
On human FLAP (setting [2]), `C[C@@H](CO)NS(=O)(=O)c1ccccc1-c1ccc(-c2cnc3c(c2)OCCN3)c(F)c1` [Example 388, 4′-(3,4-Dihydro-2H-pyrido[3,2-b][1,4]oxazin-7-yl)-3′-fluoro-N-[(1S)-2-hydroxy-1-methylethyl]biphenyl-2-sulfonamide] registered a Ki of 2 nM. Also, in experiment [1] (setting [3]), the IC50 amounted to 37 nM.
On the same counts, the results for `CCN(CC)S(=O)(=O)c1ccccc1-c1ccc(-c2cnc3c(c2)OCCN3)c(F)c1` [Example 391, 4′-(3,4-Dihydro-2H-pyrido[3,2-b][1,4]oxazin-7-yl)-N,N-diethyl-3′-fluorobiphenyl-2-sulfonamide] are 2 nM and 56 nM.
`O=S1(=O)CCN(S(=O)(=O)c2ccccc2-c2ccc(-c3cnc4c(c3)OCCN4)c(F)c2)CC1` [Example 392, 7-{2′-[(1,1-Dioxidothiomorpholin-4-yl)sulfonyl]-3-fluorobiphenyl-4-yl}-3,4-dihydro-2H-pyrido[3,2-b][1,4]oxazine] yielded an inhibition constant (Ki) on human FLAP (setting [2]) of 1 nM. Besides, the IC50 in experiment [1] (setting [3]) stood at 16 nM.
`CC(C)(C)NS(=O)(=O)c1ccccc1-c1ccc(-c2cnc3c(c2)OCCN3)c(F)c1` [Example 393, N-tert-Butyl-4′-(3,4-dihydro-2H-pyrido[3,2-b][1,4]oxazin-7-yl)-3′-fluorobiphenyl-2-sulfonamide] had a Ki on human FLAP (setting [2]) of 1 nM. Moreover, the IC50 in experiment [1] (setting [3]) worked out at 12 nM.
On human FLAP (wild type FLAP), `CC(C)S(=O)(=O)c1ncccc1-c1ccc(-c2cnc(N)cn2)c(F)c1` [Example 395, 5-(2-Fluoro-4-{2-[(1-methylethyl)sulfonyl]pyridin-3-yl}phenyl)pyrazin-2-amine] had an inhibition constant (Ki) of 9 nM. The 50% inhibitory concentration (IC50) in experiment [1] (setting [4]) is 32 nM.
As for `CC(C)Sc1ncccc1-c1ccc(-c2cnc(N)cn2)c(F)c1` [Example 396, 5-(2-Fluoro-4-{2-[(1-methylethyl)sulfanyl]pyridin-3-yl}phenyl)pyrazin-2-amine], affinity at human FLAP (wild type FLAP) was put at a Ki of 8 nM. Also, the 50% inhibitory concentration (IC50) in experiment [1] (setting [4]) worked out at 137 nM.
Taken in the same sequence, the figures for `CC(C)COc1ncccc1-c1ccc(-c2cnc3[nH]ccc3n2)c(F)c1` [Example 398, 2-{2-Fluoro-4-[2-(2-methylpropoxy)pyridin-3-yl]phenyl}-5H-pyrrolo[2,3-b]pyrazine] were 34 nM and 1130 nM.
In the case of `CC(C)Oc1ncccc1-c1ccc(-c2cnc3[nH]ccc3n2)c(F)c1` [Example 399, 2-{2-Fluoro-4-[2-(1-methylethoxy)pyridin-3-yl]phenyl}-5H-pyrrolo[2,3-b]pyrazine], affinity at human FLAP (wild type FLAP) was put at a Ki of 28 nM. In addition, the IC50 in experiment [1] (setting [4]) was 358 nM.
Molecule `CC(C)Oc1ncccc1-c1ccc(-c2cnc(N)cn2)c(F)c1` [Example 401, 5-{2-Fluoro-4-[2-(1-methylethoxy)pyridin-3-yl]phenyl}pyrazin-2-amine] came in with a Ki at human FLAP (wild type FLAP) of 158 nM. In addition, the IC50 in experiment [1] (setting [4]) came out at 538 nM.
As to `Nc1cnc(-c2ccc(-c3cccnc3OC3CCCC3)cc2F)cn1` [Example 402, 5-{4-[2-(Cyclopentyloxy)pyridin-3-yl]-2-fluorophenyl}pyrazin-2-amine], the Ki at human FLAP (wild type FLAP) came to 92 nM. For the same molecule, the IC50 in experiment [1] (setting [4]) was 522 nM.
The molecule `COc1ncccc1-c1ccc(-c2cnc(N)cn2)c(F)c1` [Example 404, 5-[2-Fluoro-4-(2-methoxypyridin-3-yl)phenyl]pyrazin-2-amine] yielded a Ki at human FLAP (wild type FLAP) of 155 nM. Besides, the IC50 in experiment [1] (setting [4]) turned out to be 1490 nM.
With `Nc1cnc(-c2ccc(-c3cccnc3OC3CCC3)cc2F)cn1` [Example 405, 5-{4-[2-(Cyclobutyloxy)pyridin-3-yl]-2-fluorophenyl}pyrazin-2-amine], the Ki on human FLAP (wild type FLAP) came to 100 nM. Moreover, the concentration for half-maximal inhibition (IC50) in experiment [1] (setting [4]) worked out at 2710 nM.
